PMC8291583, “Design, synthesis, and evaluation of 3,7-substituted coumarin derivatives as multifunctional Alzheimer’s disease agents” (Journal of Enzyme Inhibition and Medicinal Chemistry, 2021)
Read-outs that look alike come from different tables or passages of the source.

Legend:
recombinant human MAO-A = biological target: T1, recombinant human MAO-A (Homo sapiens, UniProt P21397); experiment: biochemical
T1 sequence (P21397 1-527): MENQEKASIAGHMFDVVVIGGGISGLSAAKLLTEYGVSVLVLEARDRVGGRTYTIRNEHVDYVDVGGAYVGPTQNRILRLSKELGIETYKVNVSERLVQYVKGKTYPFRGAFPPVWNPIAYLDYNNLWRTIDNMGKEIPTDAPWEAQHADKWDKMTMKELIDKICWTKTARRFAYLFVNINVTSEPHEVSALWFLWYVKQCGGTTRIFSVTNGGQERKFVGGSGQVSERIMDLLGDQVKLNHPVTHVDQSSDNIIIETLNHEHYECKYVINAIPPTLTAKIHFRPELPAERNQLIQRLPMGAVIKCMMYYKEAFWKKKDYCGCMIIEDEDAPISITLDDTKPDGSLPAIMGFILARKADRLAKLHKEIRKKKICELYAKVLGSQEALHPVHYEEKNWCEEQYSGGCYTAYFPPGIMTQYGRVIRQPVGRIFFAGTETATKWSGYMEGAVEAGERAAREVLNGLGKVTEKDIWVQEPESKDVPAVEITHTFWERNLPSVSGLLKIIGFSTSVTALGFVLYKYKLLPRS
Description: The stock was then further diluted by factors of ten to produce solutions of 1 mM, 100 µM, 10 µM, 1 µM, and 0.1 µM which would correspond to concentrations of 100 µM, 10 µM, 1 µM, 0.1 µM, and 0.01 µM in the final reaction mixture. A potassium phosphate buffer ([…] 100 mM, pH 7.4, 0.9% w/v NaCl) was prepared and refrigerated until further use. The enzyme stock solutions were prepared by dissolving 2.5 mg of enzyme in 33.33 ml of phosphate buffer to produce stock solutions of 0.075 mg/ml which were stored in aliquots at −80 °C until use. Once in the final reaction mixture, this enzyme solution will have a concentration of 0.0075 mg/ml. […] The fresh substrate was prepared on the day of the assay. The assay was carried out in 2 ml Eppendorf vials. […] Following this, 25 µl of the enzyme stock were added to each vial in 10 s intervals and the vials were incubated at 37 °C for 10 min. […] To stop the reaction at the end of this time 150 hx00B5;l of 2 N NaOH was added and the mixture was shaken. Using a micropipette 80 hx00B5;l of the mixture was transferred to a well in a black 96 well plate. The plate was placed in the fluorescent plate reader and read at an excitation/emission wavelength of 310 nm/410 nm. Each assay was run in triplicate and the data were analysed with Graph Pad Prism 8 software (San Diego, USA).
The MAO inhibitory activity of the compounds was assessed using a fluorometric assay with recombinant human MAO-A and human MAO-B enzymes.

recombinant human MAO-B = recombinant human MAO-B (Homo sapiens, UniProt P27338); experiment: MAO-B fluorometric assay (kynuramine); format: biochemical
recombinant human MAO-B, sequence (P27338 whole entry): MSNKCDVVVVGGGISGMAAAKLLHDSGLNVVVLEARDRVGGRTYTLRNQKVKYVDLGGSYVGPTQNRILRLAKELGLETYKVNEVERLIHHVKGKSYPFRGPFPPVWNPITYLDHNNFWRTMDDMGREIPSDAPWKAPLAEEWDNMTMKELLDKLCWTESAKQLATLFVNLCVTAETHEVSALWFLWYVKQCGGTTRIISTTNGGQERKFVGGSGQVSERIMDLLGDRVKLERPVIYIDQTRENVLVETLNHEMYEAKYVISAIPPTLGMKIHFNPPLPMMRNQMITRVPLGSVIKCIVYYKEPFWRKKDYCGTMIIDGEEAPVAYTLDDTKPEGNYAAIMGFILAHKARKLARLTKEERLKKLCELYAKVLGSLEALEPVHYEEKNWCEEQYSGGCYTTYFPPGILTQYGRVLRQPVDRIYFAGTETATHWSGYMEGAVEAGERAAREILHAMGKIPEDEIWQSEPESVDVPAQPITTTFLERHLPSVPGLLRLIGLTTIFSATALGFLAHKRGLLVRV
Description: . The stock was then further diluted by factors of ten to produce solutions of 1 mM, 100 µM, 10 µM, 1 µM, and 0.1 µM which would correspond to concentrations of 100 µM, 10 µM, 1 µM, 0.1 µM, and 0.01 µM in the final reaction mixture. A potassium phosphate buffer ([…] 100 mM, pH 7.4, 0.9% w/v NaCl) was prepared and refrigerated until further use. The enzyme stock solutions were prepared by dissolving 2.5 mg of enzyme in 33.33 ml of phosphate buffer to produce stock solutions of 0.075 mg/ml which were stored in aliquots at −80 °C until use. […]. The substrate was prepared by dissolving kynuramine in potassium buffer and was prepared as two separate concentrations; […]. The fresh substrate was prepared on the day of the assay. The assay was carried out in 2 ml Eppendorf vials. […] Following this, 25 µl of the enzyme stock were added to each vial in 10 s intervals and the vials were incubated at 37 °C for 10 min. After this time period 15 µl of kynuramine (750 µM for MAO-A and 500 µM for MAO-B) was added at 10 s intervals and further incubated for 20 min. To stop the reaction at the end of this time 150 hx00B5;l of 2 N NaOH was added and the mixture was shaken. Using a micropipette 80 hx00B5;l of the mixture was transferred to a well in a black 96 well plate. The plate was placed in the fluorescent plate reader and read at an excitation/emission wavelength of 310 nm/410 nm. Each assay was run in triplicate and the data were analysed with Graph Pad Prism 8 software (San Diego, USA).
The MAO inhibitory activity of the compounds was assessed using a fluorometric assay with recombinant human MAO-A and human MAO-B enzymes. […].

[1] = test system: MPP+-compromised SH-SY5Y neuroblastoma cells; format: cell-based, human
Description: SH-SY5Y cells were seeded onto a 96-well plate in a growth medium at a density of 10,000 cells/well. Cells were pre-treated with test compounds at a concentration of 10 µM and thereafter 2000 µM MPP^+ following a 2-h incubation period. Afterwards, cells were incubated for 24 h and MTT colorimetric assay was used to measure cell viability relative to untreated control. To determine the data’s statistical significance, the One-way ANOVA Turkey’s multiple comparison test was conducted on all experimental replicates using GraphPad Prism® 8 (San Diego, USA).
The SH-SY5Y cells were pre-treated with 10 µM of the test compounds for 2 h followed by the addition of 2000 µM of MPP^+.

[2] = biological target: Electrophorus electricus AChE (Electrophorus electricus, UniProt O42275); experiment: biochemical
Electrophorus electricus AChE, sequence (O42275 24-633): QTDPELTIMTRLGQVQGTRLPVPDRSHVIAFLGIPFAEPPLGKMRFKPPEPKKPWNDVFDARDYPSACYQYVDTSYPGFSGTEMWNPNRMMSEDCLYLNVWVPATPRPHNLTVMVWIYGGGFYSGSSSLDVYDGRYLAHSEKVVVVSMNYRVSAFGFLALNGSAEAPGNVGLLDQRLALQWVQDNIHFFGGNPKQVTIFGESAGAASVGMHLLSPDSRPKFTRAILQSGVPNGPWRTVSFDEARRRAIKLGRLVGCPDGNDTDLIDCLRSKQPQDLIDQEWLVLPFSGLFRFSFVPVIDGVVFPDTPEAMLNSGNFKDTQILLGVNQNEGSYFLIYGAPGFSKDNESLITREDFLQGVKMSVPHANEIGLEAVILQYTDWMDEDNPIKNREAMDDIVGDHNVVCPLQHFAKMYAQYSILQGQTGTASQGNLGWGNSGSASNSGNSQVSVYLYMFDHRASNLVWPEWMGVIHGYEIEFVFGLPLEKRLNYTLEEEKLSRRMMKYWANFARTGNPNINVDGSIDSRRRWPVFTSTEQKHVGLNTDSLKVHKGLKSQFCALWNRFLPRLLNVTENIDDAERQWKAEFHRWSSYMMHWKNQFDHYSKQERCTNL
Description: (§1) Cholinesterase activity is determined using a modified colorimetric method first described by Ellman[40]. […] The stock was then further diluted by factors of ten to produce solutions of 1 mM, 100 µM, 10 µM, 1 µM, and 0.1 µM which corresponds to concentrations of 100 µM, 10 µM, 1 µM, 0.1 µM, and 0.01 µM in the final reaction mixture. The test concentrations were stored in the refrigerator until the day of the assay. Trisma HCl buffer (50 mM, adjusted to pH 8 with 2 N NaOH) was prepared as the buffer and used to prepare enzyme stock solution (22 U/ml for Electrophorus electricus AChE and 12 U/ml BuChE from equine serum), 15 mM acetylthiocholine iodide, 15 mM S-butyrylthiocholine iodide and 1.5 mM DTNB (Ellman’s reagent). The enzyme stock solution was stabilised with 1% bovine serum albumin and stored in aliquots at −80 °C. A clear, flat bottom 96 well plate was used to perform the experiments with each concentration performed in triplicate. Prior to the assay the background absorbance for each compound at the different test concentrations was measured and accounted for when reading the final absorbance. […] Following this, 30 µl of the substrate was added to each well simultaneously using a multi pipette. […] A one-sample t-test was performed on the data to test for statistical significance.

BuChE from equine serum = biological target: T2, BuChE from equine serum (Equus caballus, UniProt P81908); experiment: biochemical
T2 construct: 12 U/ml BuChE from equine serum; from tissue; host or cells: equine serum
T2 sequence (P81908 whole entry): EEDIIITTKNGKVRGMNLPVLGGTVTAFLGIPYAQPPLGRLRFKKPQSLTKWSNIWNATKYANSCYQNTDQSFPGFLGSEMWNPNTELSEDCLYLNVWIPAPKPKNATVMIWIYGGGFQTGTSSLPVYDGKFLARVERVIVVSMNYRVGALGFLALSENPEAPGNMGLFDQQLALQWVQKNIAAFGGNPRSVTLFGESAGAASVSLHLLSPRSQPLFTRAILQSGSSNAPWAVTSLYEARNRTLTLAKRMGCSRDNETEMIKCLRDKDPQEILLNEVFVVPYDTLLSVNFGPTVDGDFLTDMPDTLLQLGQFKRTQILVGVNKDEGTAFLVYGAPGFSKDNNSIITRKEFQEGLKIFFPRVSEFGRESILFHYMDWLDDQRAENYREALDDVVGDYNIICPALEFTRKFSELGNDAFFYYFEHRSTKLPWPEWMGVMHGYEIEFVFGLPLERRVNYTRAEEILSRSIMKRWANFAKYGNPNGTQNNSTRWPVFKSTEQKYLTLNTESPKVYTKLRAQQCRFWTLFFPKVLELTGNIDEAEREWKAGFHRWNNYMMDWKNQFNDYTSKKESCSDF
Description: as §1

[3] = kynuramine 45 µM, 37 °C, read-out: MAO-A IC50
[4] = kynuramine 30 µM, 37 °C, read-out: MAO-B IC50
[5] = 10 µM compound, 2 h pre-treatment, 2000 µM MPP+, 24 h, SH-SY5Y
[6] = Ellman method, 25 °C, pH 8, read-out: AChE IC50
[7] = Ellman method, 25 °C, pH 8, read-out: BuChE IC50

Structure (SMILES) | IC50 (recombinant human MAO-A; [3]) [µM] | SI MAO-B (MAO-B selectivity index = IC50(MAO-A)/IC50(MAO-B)) (recombinant human MAO-B) | IC50 (recombinant human MAO-B; [4]) [µM] | MPP+ neuroprotection (difference in percentage cell viability vs MPP+ only treated cells) [1, 5] [%] | IC50 [2, 6] [µM] | IC50 (BuChE from equine serum; [7]) [µM] | IC50 (recombinant human MAO-A; MAO-A IC50) [µM] | IC50 (recombinant human MAO-B) [µM] | MPP+ neuroprotection (difference in percentage cell viability vs MPP+ only treated cells) [1] [%] | IC50 ([2]; AChE IC50) [µM] | IC50 (BuChE from equine serum) [µM]
Cc1cc2ccc(OCCc3ccccc3)cc2oc1=O [Compound 2, 3-methyl-7-(2-phenylethoxy)-2H-1-benzopyran-2-one] | 0.658 | 47.7 | 0.014 | 24.85 | > 100 | > 100 | – | – | – | – | –
CCN(CC)C(=O)Oc1ccc2cc(C)c(=O)oc2c1 [Compound 3, 3-methyl-2-oxo-2H-1-benzopyran-7-yl-diethylcarbamate] | 2.82 | 5.67 | 0.498 | 15.59 | > 100 | > 100 | – | – | – | – | –
Cc1cc2ccc(O)cc2oc1=O [Compound 1, 7-hydroxy-3-methyl-2H-1-benzopyran-2-one] | – | 2.04 | – | – | – | – | 33.4 | 16.4 | 26.24 | > 100 | 20.2
